# Assay results: ChEMBL document CHEMBL1145424, “Novel boron-containing, nonclassical antifolates: synthesis and preliminary biological and structural evaluation” (J Med Chem, 2007)
# Legend:
# DLD-1 = experiment: Growth inhibition of human DLD1 cells after 72 hrs; type: functional, cell-based; details: DLD-1, 72 h
# LOX IMVI = experiment: cells; details: Homo sapiens, 72 h
# Description: Growth inhibition of human LOX IMVI cells after 72 hrs
# PC-3 = experiment: Growth inhibition of human PC3 cells after 72 hrs; type: functional, cell-based; details: PC-3, 72 h
# SNB-7 = experiment: Growth inhibition of human SNB7 cells after 72 hrs; type: functional, cell-based; details: SNB-7, 72 h
# NCI-H23 = experiment: cells; details: Homo sapiens, NCI-H23, 72 h
# Description: Growth inhibition of human NCI-H23 cells after 72 hrs
# CAKI-1 = experiment: Growth inhibition of human CAKI1 cells after 72 hrs; type: functional, cell-based; details: CAKI-1, 72 h
# ZR-75-1 = experiment: Growth inhibition of human ZR-75-1 cells after 72 hrs; type: functional, cell-based; details: ZR-75-1, 72 h
smiles,measurement,setting,value
CN(Cc1cnc2nc(N)nc(N)c2n1)c1ccc(C(=O)N[C@@H](CCC(=O)O)C(=O)O)cc1 [METHOTREXATE],IC50,DLD-1,> 60 µg/mL
same,IC50,LOX IMVI,0.057 µg/mL
same,IC50,PC-3,0.027 µg/mL
same,IC50,SNB-7,> 60 µg/mL
same,IC50,NCI-H23,0.29 µg/mL
same,IC50,CAKI-1,> 60 µg/mL
same,IC50,ZR-75-1,> 60 µg/mL
